Source: patent US8173631B2, “Cyclic amine compounds” (Daiichi Sankyo Company, Limited, priority 2008, dated 2012)

Biological target: T1, human calcium-sensing receptor (CaSR) (Homo sapiens, UniProt P41180)
T1 construct: expressed in transfected cells
T1 sequence (P41180 20-1078): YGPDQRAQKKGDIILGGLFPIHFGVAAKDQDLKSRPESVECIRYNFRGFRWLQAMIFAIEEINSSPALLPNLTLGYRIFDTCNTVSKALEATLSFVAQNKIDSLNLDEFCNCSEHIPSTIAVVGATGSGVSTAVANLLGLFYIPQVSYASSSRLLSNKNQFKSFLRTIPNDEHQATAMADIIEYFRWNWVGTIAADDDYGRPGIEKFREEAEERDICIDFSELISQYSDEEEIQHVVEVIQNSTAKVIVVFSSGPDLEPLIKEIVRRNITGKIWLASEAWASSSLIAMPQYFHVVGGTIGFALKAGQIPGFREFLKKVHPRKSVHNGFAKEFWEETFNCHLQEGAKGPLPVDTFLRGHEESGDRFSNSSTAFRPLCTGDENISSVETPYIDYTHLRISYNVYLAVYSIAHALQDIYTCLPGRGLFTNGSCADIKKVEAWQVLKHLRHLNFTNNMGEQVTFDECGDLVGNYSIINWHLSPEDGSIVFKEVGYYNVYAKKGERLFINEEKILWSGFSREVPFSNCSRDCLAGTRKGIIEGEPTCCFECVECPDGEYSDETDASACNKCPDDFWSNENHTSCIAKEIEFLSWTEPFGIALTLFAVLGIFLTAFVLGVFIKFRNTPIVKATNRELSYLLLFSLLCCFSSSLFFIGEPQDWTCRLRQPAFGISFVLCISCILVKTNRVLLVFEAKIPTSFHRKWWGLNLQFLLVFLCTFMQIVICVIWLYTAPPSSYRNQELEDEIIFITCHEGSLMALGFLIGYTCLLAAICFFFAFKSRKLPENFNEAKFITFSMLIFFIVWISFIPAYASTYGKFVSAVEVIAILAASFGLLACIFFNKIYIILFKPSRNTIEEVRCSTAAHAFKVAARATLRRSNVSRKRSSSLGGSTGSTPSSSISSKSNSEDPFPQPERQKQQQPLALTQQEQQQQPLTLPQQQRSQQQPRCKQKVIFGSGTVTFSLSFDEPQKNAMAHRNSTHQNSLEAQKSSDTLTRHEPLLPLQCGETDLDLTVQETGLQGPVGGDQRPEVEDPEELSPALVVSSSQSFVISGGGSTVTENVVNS
Experiment: Inhibitory activity on calcium-sensing receptor (CaSR), intracellular calcium increase as indicator (FLIPR, CHO/hCaSR)
Type: cell-based
Conditions: CHO cells stably expressing human CaSR; inhibition of intracellular Ca increase induced by extracellular CaCl2
Method: Evaluation of inhibitory activity on calcium-sensing receptor (CaSR) using intracellular calcium increase as an indicator
The preparation which is prepared by adding CHO/hCaSR to F12 medium (manufactured by Invitrogen) containing 10% fetal bovine serum to have 2×10^5 cells/mL was applied to a 384-well in an amount of 50 μL/well, and then incubated overnight in a CO2 incubator. The culture supernatant was completely removed, the assay buffer (20 mM HEPES, HBSS (Ca and Mg free) containing 2.5 mM probenecid, pH 7.4) containing Calcium 3 (manufactured by Molecular Devices), i.e., a fluorescent intracellular calcium indicator, was added thereto in an amount of 25 μL/well, and the mixture was maintained for 1 hour in a CO2 incubator. Meanwhile, Calcium 3 was prepared according to the protocol enclosed in FLIPR Calcium 3 Assay Kit (manufactured by Molecular Devices). After maintaining it for 1 hour, a solution in which the test compound is prepared to have 2.1 to 20,000 nM (final concentration of 1.05 to 10,000 nM) by an assay buffer was added thereto in an amount of 25 μL/well, and maintained for 15 minutes in a CO2 incubator. Then, the CaCl2 solution prepared to have […] by using the assay buffer was added in an amount of 25 μL/well, and the resulting intracellular Ca increase (i.e., fluorescence intensity) was measured over time using a fluorescence imaging plate reader (FLIPR, manufactured by Molecular Devices). From the data obtained, the difference between the fluorescence intensity before the addition of CaCl2 solution and the maximum fluorescence intensity after the addition of CaCl2 solution was calculated, and the 50% inhibition concentration (IC50) of the test compound was obtained.

Compound | IC50
Cc1ccc(C[C@@H]2CCCN2C[C@@H](O)CO[C@H](C)c2ccccc2/C=C/C(=O)O)cc1F [Example 1, (2E)-3-{2-[(1R)-1-({(2R)-3-[(2S)-2-(3-Fluoro-4-methylbenzyl)pyrrolidin-1-yl]-2-hydroxypropyl}oxy)ethyl]phenyl}prop-2-enoic acid] | ≤ 3.62 µM
Cc1ccc(C[C@@H]2CCCN2C[C@@H](O)CO[C@H](C)c2ccccc2CCC(=O)O)cc1F [Example 2, 3-{2-[(1R)-1-({(2R)-3-[(2S)-2-(3-Fluoro-4-methylbenzyl)pyrrolidin-1-yl]-2-hydroxypropyl}oxy)ethyl]phenyl}propanoic acid] | ≤ 3.61 µM
Cc1ccc(C[C@@H]2CCCN2C[C@@H](O)CO[C@H](C)c2cccc(C)c2CCC(=O)O)cc1F [Example 3, 3-{2-[(1R)-1-({(2R)-3-[(2S)-2-(3-Fluoro-4-methylbenzyl)pyrrolidin-1-yl]-2-hydroxypropyl}oxy)ethyl]-6-methylphenyl}propanoic acid] | ≤ 3.5 µM
Cc1ccc([C@@H](C)OC[C@H](O)CN2CCC[C@H]2Cc2ccc(C)c(F)c2)c(CCC(=O)O)c1 [Example 4, 3-{2-[(1R)-1-({(2R)-3-[(2S)-2-(3-Fluoro-4-methylbenzyl)pyrrolidin-1-yl]-2-hydroxypropyl}oxy)ethyl]-5-methylphenyl}propanoic acid] | ≤ 3.5 µM
Cc1ccc(C[C@@H]2CCCN2C[C@@H](O)CO[C@H](C)c2cccc(F)c2CCC(=O)O)cc1F [Example 6, 3-{2-Fluoro-6-[(1R)-1-({(2R)-3-[(2S)-2-(3-fluoro-4-methylbenzyl)pyrrolidin-1-yl]-2-hydroxypropyl}oxy)ethyl]phenyl}propanoic acid] | ≤ 3.47 µM
Cc1ccc(C[C@@H]2CCCN2C[C@@H](O)CO[C@H](C)c2cc(F)ccc2CCC(=O)O)cc1F [Example 8, 3-{4-Fluoro-2-[(1R)-1-({(2R)-3-[(2S)-2-(3-fluoro-4-methylbenzyl)pyrrolidin-1-yl]-2-hydroxypropyl}oxy)ethyl]phenyl}propanoic acid] | ≤ 3.47 µM
Cc1ccc(C[C@@H]2CCCN2C[C@@H](O)CO[C@H](C)c2ccccc2CCCCC(=O)O)cc1F [Example 13, 5-{2-[(1R)-1-({(2R)-3-[(2S)-2-(3-Fluoro-4-methylbenzyl)pyrrolidin-1-yl]-2-hydroxypropyl}oxy)ethyl]phenyl}pentanoic acid] | ≤ 3.39 µM
Cc1ccc(C[C@@H]2CCN2C[C@@H](O)CO[C@H](C)c2ccccc2CCCCC(=O)O)cc1F [Example 15, 5-{2-[(1R)-1-({(2R)-3-[(2R)-2-(3-Fluoro-4-methylbenzyl)azetidin-1-yl]-2-hydroxypropyl}oxy)ethyl]phenyl}pentanoic acid] | ≤ 3.5 µM
COc1cccc([C@@H](C)OC[C@H](O)CN2CCC[C@H]2Cc2ccc(C)c(F)c2)c1CCC(=O)O [Example 18] | ≤ 3.38 µM
CC[C@@H](OC[C@H](O)CN1CCC[C@H]1Cc1ccc(C)c(F)c1)c1ccccc1CCC(=O)O [Example 19] | ≤ 3.5 µM
Cc1ccc(C[C@@H]2CCCN2C[C@@H](O)CO[C@H](C)c2ccc(F)c(C)c2CCC(=O)O)cc1F [Example 20] | ≤ 3.36 µM
CCC[C@@H](OC[C@H](O)CN1CCC[C@H]1Cc1ccc(C)c(F)c1)c1ccccc1CCC(=O)O [Example 21] | ≤ 3.39 µM
Cc1ccc(C[C@@H]2CCCN2C[C@@H](O)CO[C@H](C)c2cc(F)c(C)cc2CCC(=O)O)cc1F [Example 22] | ≤ 3.36 µM
Cc1ccc(C[C@@H]2CCCN2C[C@@H](O)CO[C@H](C)c2cc(F)c(C)cc2CCCCC(=O)O)cc1F [Example 23] | ≤ 3.18 µM
Cc1ccc(C[C@@H]2CCCN2C[C@@H](O)CO[C@H](C)c2cc(F)c(F)cc2CCC(=O)O)cc1F [Example 26] | ≤ 3.34 µM
Cc1ccc(C[C@@H]2CCCN2C[C@@H](O)CO[C@H](C)c2cc(F)cc(F)c2CCC(=O)O)cc1F [Example 27] | ≤ 3.34 µM
Cc1ccc(C[C@@H]2CCCN2C[C@@H](O)CO[C@@H](c2ccccc2CCC(=O)O)C2CC2)cc1F [Example 29] | ≤ 3.41 µM
Cc1ccc(C[C@@H]2CCCN2C[C@@H](O)CO[C@H](C)c2cc(F)c(F)cc2CCCCC(=O)O)cc1F [Example 30] | ≤ 3.15 µM
Cc1ccc(C[C@@H]2CCCN2C[C@@H](O)COC(C)c2c(F)cccc2CCC(=O)O)cc1F (some centres unmarked) [Example 31] | ≤ 3.47 µM
Cc1ccc(C[C@@H]2CCCN2C[C@@H](O)COC(C)c2c(C)cccc2CCC(=O)O)cc1F (some centres unmarked) [Example 32] | ≤ 3.5 µM
COc1cc(F)cc([C@@H](C)OC[C@H](O)CN2CCC[C@H]2Cc2ccc(C)c(F)c2)c1CCC(=O)O [Example 33] | ≤ 3.25 µM

Compound | IC50
Cc1ccc(C[C@@H]2CCCN2C[C@@H](O)COC(C)c2c(CCC(=O)O)ccc(F)c2F)cc1F (some centres unmarked) [Example 34] | ≤ 3.34 µM
C[C@@H](OC[C@H](O)CN1CCC[C@H]1Cc1ccc(F)c(F)c1)c1ccccc1CCC(=O)O [Example 38] | ≤ 3.58 µM
CCc1cccc(C[C@@H]2CCCN2C[C@@H](O)CO[C@H](C)c2ccccc2CCC(=O)O)c1 [Example 39] | ≤ 3.64 µM
COc1cccc([C@@H](C)OC[C@H](O)CN2CCC[C@H]2Cc2ccc(C)c(F)c2)c1CCCCC(=O)O [Example 42] | ≤ 3.19 µM
CC[C@@H](OC[C@H](O)CN1CCC[C@H]1Cc1ccc(C)c(F)c1)c1cc(F)ccc1CCC(=O)O [Example 43] | ≤ 3.36 µM
CC[C@@H](OC[C@H](O)CN1CCC[C@H]1Cc1ccc(C)c(F)c1)c1cccc(F)c1CCC(=O)O [Example 44] | ≤ 3.36 µM
CC[C@@H](OC[C@H](O)CN1CCC[C@H]1Cc1ccc(C)c(F)c1)c1ccc(C)cc1CCC(=O)O [Example 45] | ≤ 3.39 µM
CC[C@@H](OC[C@H](O)CN1CCC[C@H]1Cc1ccc(C)c(F)c1)c1cccc(OC)c1CCC(=O)O [Example 46] | ≤ 3.28 µM
CC[C@@H](OC[C@H](O)CN1CCC[C@H]1Cc1ccc(C)c(F)c1)c1cccc(C)c1CCC(=O)O [Example 47] | ≤ 3.39 µM
Cc1ccc(C[C@@H]2C[C@@H](F)CN2C[C@@H](O)CO[C@H](C)c2ccccc2CCC(=O)O)cc1F [Example 48] | ≤ 3.47 µM
Cc1ccc(C[C@@H]2C[C@@H](O)CN2C[C@@H](O)CO[C@H](C)c2ccccc2CCC(=O)O)cc1F [Example 49] | ≤ 3.48 µM
Cc1ccc([C@@H](C)OC[C@H](O)CN2CCC[C@H]2Cc2ccc(C)c(F)c2)c(CCCCC(=O)O)c1 [Example 53] | ≤ 3.29 µM
Cc1ccc(C[C@@H]2CCCN2C[C@@H](O)CO[C@H](C)c2ccc(F)cc2CCCCC(=O)O)cc1F [Example 54] | ≤ 3.27 µM
Cc1ccc(C[C@@H]2CCCN2C[C@@H](O)CO[C@H](C)c2cc(F)ccc2CCCCC(=O)O)cc1F [Example 55] | ≤ 3.27 µM
Cc1ccc(C[C@@H]2CCCN2C[C@@H](O)CO[C@H](C)c2cccc(C)c2CCCCC(=O)O)cc1F [Example 57] | ≤ 3.29 µM
Cc1ccc(C[C@@H]2CCCN2C[C@@H](O)CO[C@H](C)c2cccc(F)c2CCCCC(=O)O)cc1F [Example 58] | ≤ 3.27 µM
Cc1ccc(C[C@@H]2CCCN2C[C@@H](O)CO[C@H](C)c2cc(C(F)(F)F)ccc2CCCCC(=O)O)cc1F [Example 60] | ≤ 2.97 µM
CCC[C@@H](OC[C@H](O)CN1CCC[C@H]1Cc1ccc(C)c(F)c1)c1cc(F)ccc1CCC(=O)O [Example 61] | ≤ 3.27 µM
CCC[C@@H](OC[C@H](O)CN1CCC[C@H]1Cc1ccc(C)c(F)c1)c1cccc(C)c1CCC(=O)O [Example 62] | ≤ 3.29 µM
CCC[C@@H](OC[C@H](O)CN1CCC[C@H]1Cc1ccc(C)c(F)c1)c1cccc(F)c1CCC(=O)O [Example 63] | ≤ 3.27 µM
